Laboratory results published in patent publication US20250221970A1, “Combinations of a B-RAF Inhibitor and an Anti-EGFR Antibody for the Treatment of Cancer” (MapKure, LLC, priority 2022, published 2025).
In brackets after ≈: the same amount, converted by molar mass.

Assays:
[1] = Hygroscopicity of the solid form (Form F) of Compound A; type: physicochemical; conditions: at 80% relative humidity (RH)
[2] = Solubility of the solid form (Form F) of Compound A; type: physicochemical
[3] = Compound A monotherapy clinical study; type: in vivo, human
[4] = Solid form stability of Form F at long-term and accelerated condition; type: physicochemical
[5] = system: CYP3A; experiment: In vitro metabolism of Compound A; type: in vitro ADME; conditions: in vitro data

## O=C1CCc2c(Oc3ccc4c(c3)[C@H]3[C@H](NC(=O)Nc5cc(F)c(F)cc5F)[C@H]3O4)ccnc2N1 [Compound A, 1-((1S,1aS,6bS)-5-((7-oxo-5,6,7,8-tetrahydro-1,8-naphthyridin-4-yl)oxy)-1a,6b-dihydro-1H-cyclopropa[b]benzofuran-1-yl)-3-(2,4,5-trifluorophenyl) urea]
[1]
  Hygroscopicity (classification): moderately hygroscopic.
[1]; actual moisture of 81.5%
  Hygroscopicity: moisture absorption: 81.5% and a moisture absorption of about 5.425%; the sample was
[2]; 0.1N HCl, simulated gastric fluid, in 0.1N HCI
  solubility: 240 µg/mL (≈ 497 µM)
[2]; medium with 0.5% hexadecyl trimethyl ammonium bromide (HTAB), aqueous with cosolvent or surfactant or cyclodextrin, with 0.5% HTAB (hexadecyl trimethyl ammonium bromide)
  solubility: 310 µg/mL (≈ 643 µM)
[2]; medium with 1% sodium lauryl sulphate (SLS), aqueous with cosolvent or surfactant or cyclodextrin, with 1% SLS (sodium lauryl sulphate)
  solubility: 450 µg/mL (≈ 933 µM)
[2]; pH 4.5 buffer, pH 4.5, aqueous buffer
  solubility: < 5 µg/mL
[2]; pH 6.8 buffer, pH 6.8, aqueous buffer
  solubility: < 5 µg/mL
[3]; Compound A monotherapy, QD
  MTD (maximum tolerated dose): 40 mg
[3]; emerging data from the ongoing Compound A clinical study
  Increased incidence of ocular AEs: no evidence
[4]; accelerated condition (40° C./75% RH)
  Stability: time Form F is in amorphous form: (25° C./60% RH) as well as for 6 months at accelerated condition (40° C./
[4]; long-term condition (25° C./60% RH)
  Stability: time Form F is in amorphous form: Form F is in amorphous form for 24 months at long-term condition
[5]
  Main metabolic pathway: mainly metabolized by the CYP3A pathway
